Laboratory results reported in patent publication US20240408169A1 (priority 2023, published 2024).
Read-outs that look alike come from different tables or passages of the source. *1 amine or outer side, *2 acyl side, *3 side chain or, on linkers, in order; H or OH if unused. Where a SMILES comes first, the peptide text is derived from it. Bridges are numbered along the chain shown (N, C = ends). [ ]: non-standard residue; d: D form. The star is where a group is joined. NMeAla(5-Cl-2-cPrO-3-pyridyl) = CN[C@@H](Cc1cc(Cl)cnc1OC1CC1)C(=O)O; X99 = CC(=O)N1CCC(Oc2ccc(Cl)cc2C[C@@H](C(=O)[*:2])N(C)[*:1])CC1; NMehhhLys(Me) = CN([C@@H](CCCCCCCN(C)[*:3])C(=O)[*:2])[*:1]; NMe(hhhLys) = CN([C@@H](CCCCCCCN[*:3])C(=O)[*:2])[*:1]; X28 = CN([C@@H](Cc1cc(Cl)cnc1OC1CCC1)C(=O)[*:2])[*:1]; Cyclobutanecarbonyl(1-CF3) = O=C(C1(C(F)(F)F)CCC1)*; cBuCO(3,3-F2-1-CF3) = O=C(C1(C(F)(F)F)CC(F)(F)C1)*; Pro(trans-4-F) = O=C(O)[C@@H]1C[C@@H](F)CN1; Gly(cPr) = N[C@H](C(=O)O)C1CC1

How the values were obtained:
[1] = from (S,Z)-2-((((9H-fluoren-9-yl)methoxy)carbonyl)(methyl)amino)-9-((S)-2-((S)-2-(12-azaneyl)-N,4-dimethylpentanamido)-3-(5-chloro-2-cyclopropoxypyridin-3-yl)-N-methylpropanamido)non-4-enoic acid TFA salt; amide bond; 16-membered ring; PyBOP/HOAt/DIEA; DCM; 2.6 mM; 25.0 °C
CyclinA2/CDK2 = target: T1, CyclinA2/CDK2 (Homo sapiens, UniProt P20248); experiment: Fluorescence Polarization (FP) competitive binding assay, Cyclin A2/Cdk2;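 also: plates equilibrated two hours at room temperature before polarization reading, IC50 fitted from eight-concentration compound titration curves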
T1 construct: purchased CRELUX Protein Services

CyclinB1/CDK1 = target: T2, CyclinB1/CDK1 (Homo sapiens, UniProt P14635); experiment: Fluorescence Polarization (FP) competitive binding assay, Cyclin B1/Cdk1;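 also: fluorescence polarization read after equilibration at room temperature, with IC50 taken from serially diluted dose-response curves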
T2 construct: purchased Eurofins, discovery 14-450

CyclinE1/CDK2 = target: T3, CyclinE1/CDK2 (Homo sapiens, UniProt P24864); experiment: Fluorescence Polarization (FP) competitive binding assay, Cyclin E1/Cdk2;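 also: readings taken after two-hour equilibration at room temperature in HEPES buffer with NaCl, DTT, NP-40 and BSA, IC50 fitted from eight-concentration serial dilution series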
T3 construct: purchased Eurofins, discovery 14-475

WI-38 cells = experiment: MTT proliferation assay, WI-38; assay type: cell-based; conditions: 3 days compound exposure, 1:3 serial dilution starting at 10 μM;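 also: Eight- or ten-point dilution series, with exposure length chosen to span about three to four cell doublings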
NCI-H1048 cells = experiment: MTT proliferation assay, NCI-H1048; assay type: cell-based; conditions: 5 days compound exposure, 1:3 serial dilution starting at 10 μM;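 also: Dose-response in 96-well plates over 8 or 10 concentration points, with exposure spanning 3-4 cell doublings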
OVCAR3 cells = experiment: MTT proliferation assay, OVCAR3; assay type: cell-based; conditions: 5 days compound exposure, 1:3 serial dilution starting at 10 μM;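 also: compound given as an 8- or 10-point series, one day after plating, with exposure covering roughly 3-4 cell doublings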
[2] = read-out: Cyclin B FP IC50; 10 nM Cyclin B1/Cdk1, 2 nM FAM probe; average of 2-3 independent experiments
[3] = 8 nM Cyclin A2/Cdk2, 2 nM FAM probe, average of 2-3 independent experiments, read-out: Cyclin A FP IC50
[4] = 10 nM Cyclin B1/Cdk1, 2 nM FAM probe; average of 2-3 independent experiments; read-out: Cyclin B FP IC50
[5] = 10 nM Cyclin E1/Cdk2, 2 nM FAM probe, average of 2-3 independent experiments, read-out: Cyclin E FP IC50

CC(C)C[C@@H]1NC(=O)[C@@H](N(C)C(=O)[C@@H](NC(=O)OC(C)(C)C)C2CC2)CC=CCCCCN(C)C(=O)[C@H](Cc2cc(F)ccc2Br)N(C)C1=O gave a ring closure, yield of all isomers (from C=CCCCCN(C)C(=O)[C@H](Cc1cc(F)ccc1Br)N(C)C(=O)[C@H](CC(C)C)NC(=O)[C@H](CC=C)N(C)C(=O)[C@@H](NC(=O)OC(C)(C)C)C1CC1, rcm bond, Hoveyda-Grubbs II, DCE, 6.3 mM, 70.0 °C) of 67%.
In the case of CC(C)C[C@@H]1NC(=O)[C@@H](N(C)C(=O)OCC2c3ccccc3-c3ccccc32)C/C=C\CCCCN(C)C(=O)[C@H](Cc2cc(Cl)cnc2OC2CC2)N(C)C1=O, the ring closure, yield of all isomers (from CC(C)C[C@H](N)C(=O)N(C)[C@@H](Cc1cc(Cl)cnc1OC1CC1)C(=O)N(C)CCCC/C=C\C[C@@H](C(=O)O)N(C)C(=O)OCC1c2ccccc2-c2ccccc21, amide bond, PyBOP/HOAt/DIPEA, DCM, 2.57 mM, 25.0 °C) is reported as 30%.
Work on CCN(C(=O)OC1c2ccccc2-c2ccccc21)[C@H]1C/C=C\CCCCN(C)C(=O)[C@H](Cc2cc(Cl)cnc2OC2CC2)N(C)C(=O)[C@H](CC(C)C)NC1=O yielded a ring closure, isolated yield [1] of 30%.
Work on CCN(C(=O)[C@@H](NC(=O)[C@@H]1C[C@@H](F)CN1C(=O)C1(C(F)(F)F)CCC1)C1CC1)[C@H]1CCCCCCCN(C)C(=O)[C@H](Cc2cc(Cl)cnc2OC2CC2)N(C)C(=O)[C@H](CC(C)C)NC1=O [Example 220] yielded an IC50 (CyclinA2/CDK2) of 90 nM, an IC50 (CyclinB1/CDK1; [2]) of 20 nM and an IC50 (CyclinE1/CDK2) of 680 nM. It also gave a GI50 (WI-38 cells) of 5200 nM, a GI50 (NCI-H1048 cells) of 30 nM and a GI50 (OVCAR3 cells) of 70 nM.
With CC(C)C[C@@H]1NC(=O)[C@@H](N(C)C(=O)[C@@H](NC(=O)[C@@H]2C[C@@H](F)CN2C(=O)C2(C(F)(F)F)CC(F)(F)C2)C2CC2)CCCCCCCNC(=O)[C@H](Cc2cc(Cl)cnc2OC2CCC2)N(C)C1=O [Example 142] ({cBuCO(3,3-F2-1-CF3)}-[Pro(trans-4-F)][Gly(cPr)][NMe(hhhLys)]L[X28]; lactam 3-C) the IC50 (CyclinA2/CDK2; [3]) was 40 nM, the IC50 (CyclinB1/CDK1; [4]) was 20 nM and the IC50 (CyclinE1/CDK2; [5]) was 150 nM. For the same compound, the GI50 (WI-38 cells) was 10200 nM, the GI50 (NCI-H1048 cells) was 110 nM and the GI50 (OVCAR3 cells) was 190 nM.
Work on CC(=O)N1CCC(Oc2ccc(Cl)cc2C[C@H]2C(=O)N(C)CCCCCCC[C@H](N(C)C(=O)[C@@H](NC(=O)[C@@H]3C[C@@H](F)CN3C(=O)C3(C(F)(F)F)CC(F)(F)C3)C3CC3)C(=O)N[C@@H](CC(C)C)C(=O)N2C)CC1 [Example 243] ({cBuCO(3,3-F2-1-CF3)}-[Pro(trans-4-F)][Gly(cPr)][NMehhhLys(Me)]L[X99]; lactam 3-C) yielded an IC50 (CyclinA2/CDK2) of 50 nM, an IC50 (CyclinB1/CDK1; [2]) of 20 nM and an IC50 (CyclinE1/CDK2) of 690 nM. It also gave a GI50 (WI-38 cells) of 13300 nM, a GI50 (NCI-H1048 cells) of 50 nM and a GI50 (OVCAR3 cells) of 40 nM.
For CC(C)C[C@@H]1NC(=O)[C@@H](N(C)C(=O)[C@@H](NC(=O)[C@@H]2C[C@@H](F)CN2C(=O)C2(C(F)(F)F)CCC2)C2CC2)CCCCCCCN(C)C(=O)[C@H](Cc2cc(Cl)cnc2OC2CC2)N(C)C1=O [Example 109] ({Cyclobutanecarbonyl(1-CF3)}-[Pro(trans-4-F)][Gly(cPr)][NMehhhLys(Me)]L[NMeAla(5-Cl-2-cPrO-3-pyridyl)]; lactam 3-C), the IC50 (CyclinA2/CDK2; [3]) was 40 nM, the IC50 (CyclinB1/CDK1; [4]) was 20 nM and the IC50 (CyclinE1/CDK2; [5]) was 170 nM. It also gave a GI50 (WI-38 cells) of 9520 nM, a GI50 (NCI-H1048 cells) of 20 nM and a GI50 (OVCAR3 cells) of 20 nM.
